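Where inhibition never reached the appropriate level, the endpoint shown equals the highest concentration tested. Otherwise, values were interpolated linearly from a five-concentration, 48-hour dose response in 96-well plates. The concentration for 50% growth inhibition is given as GI50.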 Calls of active or inactive are those of the source. Rule as the data show it: active = GI50 up to about 1.1 µM and inactive = higher. Where a SMILES comes first, the peptide text is derived from it. [ ]: non-standard residue; d: D form. The star is where a group is joined. NMeF = CN[C@@H](Cc1ccccc1)C(=O)O; NMeV = CN[C@H](C(=O)O)C(C)C; Boc = CC(C)(C)OC(=O)*; OBn = c1ccc(CO*)cc1
Tests used:
Test in all cases: inhibition of tumour cell growth, NCI panel, 48 h
A549 = test system: A549
ACHN = test system: ACHN
CCRF-CEM = test system: CCRF-CEM
COLO 205 = test system: COLO 205
DMS-114 = test system: DMS-114
DMS-273 = test system: DMS-273
EKVX = test system: EKVX
HCC 2998 = test system: HCC 2998
HCT-116 = test system: HCT-116
HCT-15 = test system: HCT-15
HL-60 = test system: HL-60
HOP-18 = test system: HOP-18
HOP-62 = test system: HOP-62
HOP-92 = test system: HOP-92
HT-29 = test system: HT-29
IGROV-1 = test system: IGROV-1
K562 = test system: K562
KM-20L2 = test system: KM-20L2
KM12 = test system: KM12
LOX IMVI = test system: LOX IMVI
LXFL 529 = test system: LXFL 529
M14 = test system: M14
M19-MEL = test system: M19-MEL
MOLT-4 = test system: MOLT-4
NCI-H23 = test system: NCI-H23
NCI-H460 = test system: NCI-H460
OVCAR-3 = test system: OVCAR-3
OVCAR-4 = test system: OVCAR-4
OVCAR-5 = test system: OVCAR-5
OVCAR-8 = test system: OVCAR-8
RPMI-8226 = test system: RPMI-8226
RXF 393 = test system: RXF 393
SF-268 = test system: SF-268
SF-539 = test system: SF-539
SK-MEL-28 = test system: SK-MEL-28
SK-MEL-2 = test system: SK-MEL-2
SK-MEL-5 = test system: SK-MEL-5
SN12C = test system: SN12C
SNB-19 = test system: SNB-19
SNB-75 = test system: SNB-75
SNB-78 = test system: SNB-78
SR = test system: SR
SW-620 = test system: SW-620
TK-10 = test system: TK-10
U-251 = test system: U-251
UACC-257 = test system: UACC-257
UACC-62 = test system: UACC-62
UO-31 = test system: UO-31
786-0 = test system: 786-0
A498 = test system: A498
BT-549 = test system: BT-549
CAKI-1 = test system: CAKI-1
DLD-1 = test system: DLD-1
DU-145 = test system: DU-145
Hs-578T = test system: Hs-578T
MCF7 = test system: MCF7
MDA-MB-231 = test system: MDA-MB-231
MDA-MB-435 = test system: MDA-MB-435
NCI-H226 = test system: NCI-H226
NCI-H522 = test system: NCI-H522
NCI/ADR-RES = test system: NCI/ADR-RES
PC-3 = test system: PC-3
SF-295 = test system: SF-295
SK-OV-3 = test system: SK-OV-3
T47D = test system: T47D

## Cc1cc(O)nc(NN2C(Cl)C(=O)C2c2ccc([N+](=O)[O-])cc2)n1 (centres undefined)
A549
  GI50: 14.7 µM (inactive)
ACHN
  GI50: 7.4 µM (inactive)
CCRF-CEM
  GI50: 2.15 µM (inactive)
COLO 205
  GI50: 18.6 µM (inactive)
DMS-114
  GI50: 8.07 µM (inactive)
DMS-273
  GI50: 8.34 µM (inactive)
EKVX
  GI50: 23 µM (inactive)
HCC 2998
  GI50: 15.3 µM (inactive)
HCT-116
  GI50: 9.38 µM (inactive)
HCT-15
  GI50: 7.52 µM
HL-60
  GI50: 4.12 µM (inactive)
HOP-18
  GI50: 11.3 µM (inactive)
HOP-62
  GI50: 7.76 µM (inactive)
HOP-92
  GI50: 13.7 µM (inactive)
HT-29
  GI50: 15.6 µM (inactive)
IGROV-1
  GI50: 4.03 µM (inactive)
K562
  GI50: 3.1 µM (inactive)
KM-20L2
  GI50: 17.1 µM (inactive)
KM12
  GI50: > 10 µM (inactive)
LOX IMVI
  GI50: 5.96 µM (inactive)
LXFL 529
  GI50: 7.67 µM (inactive)
M14
  GI50: 11 µM (inactive)
M19-MEL
  GI50: 4.26 µM (inactive)
MOLT-4
  GI50: 8.13 µM (inactive)
NCI-H23
  GI50: 7.18 µM (inactive)
NCI-H460
  GI50: 4.04 µM (inactive)
OVCAR-3
  GI50: 6.53 µM (inactive)
OVCAR-4
  GI50: 13.7 µM (inactive)
OVCAR-5
  GI50: 25.1 µM (inactive)
OVCAR-8
  GI50: 17.8 µM (inactive)
RPMI-8226
  GI50: 7.35 µM (inactive)
RXF 393
  GI50: 0.76 µM (active)
SF-268
  GI50: 13.1 µM (inactive)
SF-539
  GI50: 10.8 µM (inactive)
SK-MEL-28
  GI50: 11.9 µM (inactive)
SK-MEL-2
  GI50: 6.07 µM (inactive)
SK-MEL-5
  GI50: 13.5 µM (inactive)
SN12C
  GI50: 11.1 µM (inactive)
SNB-19
  GI50: 15.3 µM (inactive)
SNB-75
  GI50: 2.58 µM (inactive)
SNB-78
  GI50: 7.36 µM (inactive)
SR
  GI50: 6.15 µM (inactive)
SW-620
  GI50: 20.5 µM (inactive)
TK-10
  GI50: 15.8 µM (inactive)
U-251
  GI50: 13.8 µM (inactive)
UACC-257
  GI50: 16 µM (inactive)
UACC-62
  GI50: 3.31 µM (inactive)
UO-31
  GI50: 13.9 µM (inactive)

## CC(C)[C@@H](C(=O)N1CCC[C@H]1C(=O)OCc1ccccc1)N(C)C(=O)[C@H](C(C)C)N(C)C(=O)[C@H](Cc1ccccc1)N(C)C(=O)[C@H](NC(=O)OC(C)(C)C)C(C)C (Boc-[dV][NMeF][NMeV][NMeV]P-OBn)
786-0
  GI50: > 50 µM (inactive)
A498
  GI50: > 50 µM (inactive)
A549
  GI50: > 50 µM (inactive)
ACHN
  GI50: > 50 µM (inactive)
BT-549
  GI50: > 50 µM (inactive)
CAKI-1
  GI50: > 50 µM (inactive)
CCRF-CEM
  GI50: > 50 µM (inactive)
COLO 205
  GI50: > 50 µM (inactive)
DLD-1
  GI50: 25.4 µM (inactive)
DMS-114
  GI50: 19.6 µM (inactive)
DMS-273
  GI50: 24.3 µM (inactive)
DU-145
  GI50: > 50 µM (inactive)
EKVX
  GI50: > 50 µM (inactive)
HCC 2998
  GI50: > 50 µM (inactive)
HCT-116
  GI50: > 50 µM (inactive)
HCT-15
  GI50: 17.3 µM
HL-60
  GI50: > 50 µM (inactive)
HOP-18
  GI50: > 100 µM (inactive)
HOP-62
  GI50: > 50 µM (inactive)
HOP-92
  GI50: > 50 µM (inactive)
HT-29
  GI50: > 50 µM (inactive)
Hs-578T
  GI50: > 50 µM (inactive)
IGROV-1
  GI50: > 50 µM (inactive)
K562
  GI50: > 50 µM (inactive)
KM12
  GI50: > 50 µM (inactive)
LOX IMVI
  GI50: > 50 µM (inactive)
LXFL 529
  GI50: 22.2 µM (inactive)
M14
  GI50: > 50 µM (inactive)
MCF7
  GI50: > 50 µM (inactive)
MDA-MB-231
  GI50: > 50 µM (inactive)
MDA-MB-435
  GI50: > 50 µM (inactive)
MOLT-4
  GI50: > 50 µM (inactive)
NCI-H226
  GI50: > 50 µM (inactive)
NCI-H23
  GI50: > 50 µM (inactive)
NCI-H460
  GI50: > 50 µM (inactive)
NCI-H522
  GI50: > 50 µM (inactive)
NCI/ADR-RES
  GI50: > 50 µM (inactive)
OVCAR-3
  GI50: > 50 µM (inactive)
OVCAR-4
  GI50: > 50 µM (inactive)
OVCAR-5
  GI50: > 50 µM (inactive)
PC-3
  GI50: > 50 µM (inactive)
RPMI-8226
  GI50: > 50 µM (inactive)
RXF 393
  GI50: > 50 µM (inactive)
SF-268
  GI50: > 50 µM (inactive)
SF-295
  GI50: > 50 µM (inactive)
SF-539
  GI50: > 50 µM (inactive)
SK-MEL-28
  GI50: > 50 µM (inactive)
SK-MEL-2
  GI50: > 50 µM (inactive)
SK-MEL-5
  GI50: > 50 µM (inactive)
SK-OV-3
  GI50: > 50 µM (inactive)
SN12C
  GI50: > 50 µM (inactive)
SNB-19
  GI50: > 50 µM (inactive)
SNB-75
  GI50: > 50 µM (inactive)
SR
  GI50: 18.6 µM (inactive)
SW-620
  GI50: > 50 µM (inactive)
T47D
  GI50: > 50 µM (inactive)
TK-10
  GI50: > 50 µM (inactive)
U-251
  GI50: > 50 µM (inactive)
UACC-257
  GI50: > 50 µM (inactive)
UACC-62
  GI50: > 50 µM (inactive)
UO-31
  GI50: > 50 µM (inactive)

Reference: ChEMBL document CHEMBL1201862, “PubChem BioAssay data set” (2004)
